Laboratory results from PubChem BioAssay (NCI).
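Test compounds were applied to cells in 96-well plates for 48 hours at 5 doses. Here, GI50 denotes the concentration required for 50% inhibition of growth. TGI marks complete inhibition of growth.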

Experiments:
Assay in all cases: DTP human tumour cell line panel, 48 h
[1] = test system: HT29 colon
[2] = test system: SK-MEL-28 melanoma
[3] = test system: NCI/ADR-RES ovarian
[4] = test system: NCI-H226 lung
[5] = test system: K-562 leukemia
[6] = test system: SF-539 CNS
[7] = test system: RXF 393 renal
[8] = test system: OVCAR-3 ovarian
[9] = test system: HL-60(TB) leukemia
[10] = test system: HOP-92 NSCLC
[11] = test system: SW-620 colon
[12] = test system: NCI-H522 lung
[13] = test system: OVCAR-4 ovarian
[14] = test system: SR leukemia
[15] = test system: BT-549 breast
[16] = test system: MCF7 breast
[17] = test system: MALME-3M melanoma
[18] = test system: IGROV1 ovarian
[19] = test system: MDA-MB-231 breast
[20] = test system: HCT-15 colon
[21] = test system: LOX IMVI melanoma
[22] = test system: SNB-75 CNS
[23] = test system: UACC-62 melanoma
[24] = test system: M14 melanoma
[25] = test system: SK-MEL-2 melanoma
[26] = test system: SNB-19 CNS
[27] = test system: SF-268 CNS
[28] = test system: MOLT-4 leukemia
[29] = test system: NCI-H460 lung
[30] = test system: CAKI-1 renal
[31] = test system: A498 renal
[32] = test system: SK-MEL-5 melanoma
[33] = test system: COLO 205 colon
[34] = test system: EKVX NSCLC
[35] = test system: HCT-116 colon
[36] = test system: T-47D breast
[37] = test system: HS 578T breast
[38] = test system: UO-31 renal
[39] = test system: 786-0 renal
[40] = test system: HOP-62 NSCLC
[41] = test system: DU-145 prostate
[42] = test system: A549 NSCLC
[43] = test system: OVCAR-8 ovarian
[44] = test system: SK-OV-3 ovarian
[45] = test system: OVCAR-5 ovarian
[46] = test system: SN12C renal
[47] = test system: TK-10 renal
[48] = test system: U251 CNS
[49] = test system: HCC-2998 colon
[50] = test system: ACHN renal
[51] = test system: NCI-H23 lung
[52] = test system: CCRF-CEM leukemia
[53] = test system: KM12 colon
[54] = test system: MDA-MB-435
[55] = test system: UACC-257 melanoma
[56] = test system: SF-295 CNS
[57] = test system: RPMI-8226 leukemia
[58] = test system: PC-3 prostate

Work on `CC(=O)Nc1ccc(OC(C)=O)cc1` yielded a GI50 [1] of less than 0.01 µM, a TGI [1] of 0.776 µM and a GI50 [2] of less than 0.01 µM. For the same compound, the TGI [2] was 48 µM, the GI50 [3] was less than 0.0105 µM and the TGI [3] was greater than 7.41 µM. It also gave a GI50 [4] of less than 0.01 µM, a GI50 [5] of less than 0.01 µM and a TGI [5] greater than 57.2 µM. It also gave a GI50 [6] of less than 0.01 µM, a TGI [6] of 0.766 µM and a GI50 [7] of less than 0.01 µM. For the same compound, the TGI [7] was 6.3 µM, the GI50 [8] was less than 0.01 µM and the TGI [8] was less than 0.0134 µM. It also gave a GI50 [9] of less than 0.01 µM, a TGI [9] of less than 0.01 µM and a GI50 [10] of less than 0.0116 µM. It also gave a TGI [10] of 1.81 µM, a GI50 [11] of less than 0.01 µM and a TGI [11] greater than 100 µM. The GI50 [12] was less than 0.01 µM, the TGI [12] was less than 0.01 µM and the GI50 [13] was less than 0.01 µM. It also gave a TGI [13] greater than 91.7 µM, a GI50 [14] of less than 0.01 µM and a TGI [14] of 1.5 µM. For the same compound, the GI50 [15] was less than 0.01 µM, the TGI [15] was 0.165 µM and the GI50 [16] was less than 0.01 µM. For the same compound, the TGI [16] was greater than 74.4 µM, the GI50 [17] was 0.668 µM and the TGI [17] was 24.5 µM. It also gave a GI50 [18] of less than 0.0122 µM, a TGI [18] greater than 48.5 µM and a GI50 [19] of less than 0.01 µM. It also gave a TGI [19] of 2.04 µM, a GI50 [20] of less than 0.01 µM and a TGI [20] of 16.6 µM. It also gave a GI50 [21] of less than 0.01 µM, a TGI [21] of 4.14 µM and a GI50 [22] of less than 0.01 µM. The TGI [22] was 28.6 µM, the GI50 [23] was less than 0.01 µM and the TGI [23] was 12.7 µM. The GI50 [24] was less than 0.01 µM, the TGI [24] was 3.32 µM and the GI50 [25] was less than 0.01 µM. The TGI [25] was 8.54 µM, the GI50 [26] was less than 0.0126 µM and the TGI [26] was greater than 100 µM. For the same compound, the GI50 [27] was less than 0.0103 µM, the TGI [27] was 46.2 µM and the GI50 [28] was less than 0.01 µM. It also gave a TGI [28] of 3.79 µM, a GI50 [29] of less than 0.01 µM and a TGI [29] of 16.9 µM. The GI50 [30] was 0.084 µM, the TGI [30] was 28.8 µM and the GI50 [31] was less than 0.01 µM. It also gave a TGI [31] of 0.0488 µM, a GI50 [32] of less than 0.01 µM and a TGI [32] of less than 0.01 µM. The GI50 [33] was less than 0.01 µM, the TGI [33] was 0.01 µM and the GI50 [34] was 3 µM. It also gave a TGI [34] greater than 78.7 µM, a GI50 [35] of less than 0.01 µM and a TGI [35] of 0.204 µM. For the same compound, the GI50 [36] was 5.74 µM, the TGI [36] was greater than 100 µM and the GI50 [37] was less than 0.0166 µM. For the same compound, the TGI [37] was 61.5 µM, the GI50 [38] was 0.252 µM and the TGI [38] was 26 µM. It also gave a GI50 [39] of less than 0.01 µM, a TGI [39] of 5.52 µM and a GI50 [40] of less than 0.01 µM. For the same compound, the TGI [40] was 14.7 µM, the GI50 [41] was less than 0.0105 µM and the TGI [41] was 0.0172 µM. The GI50 [42] was less than 0.01 µM, the TGI [42] was 30.8 µM and the GI50 [43] was less than 0.01 µM. The TGI [43] was greater than 49.1 µM, the GI50 [44] was less than 0.01 µM and the GI50 [45] was less than 0.01 µM. It also gave a TGI [45] greater than 100 µM, a GI50 [46] of less than 0.01 µM and a TGI [46] of 49.1 µM. For the same compound, the GI50 [47] was 10.7 µM, the TGI [47] was greater than 100 µM and the GI50 [48] was less than 0.01 µM. For the same compound, the TGI [48] was greater than 37.7 µM, the GI50 [49] was less than 0.0117 µM and the TGI [49] was 0.327 µM. The GI50 [50] was less than 0.01 µM, the TGI [50] was 76 µM and the GI50 [51] was less than 0.01 µM. The TGI [51] was 60.3 µM, the GI50 [52] was less than 0.01 µM and the TGI [52] was greater than 49.8 µM. It also gave a GI50 [53] of less than 0.01 µM, a TGI [53] of 12.1 µM and a GI50 [54] of less than 0.01 µM. It also gave a TGI [54] of less than 0.01 µM, a TGI [55] of 29.7 µM and a GI50 [56] of less than 0.01 µM. For the same compound, the TGI [56] was 12.4 µM, the GI50 [57] was less than 0.01 µM and the TGI [57] was 9.64 µM. The GI50 [58] was less than 0.01 µM and the TGI [58] was greater than 66.3 µM.

`CCCS(=O)(=O)Nc1cccc(Nc2ncnc3cc(NC(=O)CCl)ccc23)c1Cl` gave a GI50 [1] of 1.1 µM, a TGI [1] of 4.74 µM and a GI50 [2] of 2.45 µM. For the same compound, the TGI [2] was 9.67 µM, the GI50 [3] was 6.95 µM and the TGI [3] was 25 µM. For the same compound, the GI50 [4] was 3.31 µM, the TGI [4] was 11.9 µM and the GI50 [5] was 1.04 µM. It also gave a TGI [5] of 17.1 µM, a GI50 [6] of 1.35 µM and a TGI [6] of 4.54 µM. It also gave a GI50 [7] of 3.26 µM, a TGI [7] of 7.13 µM and a GI50 [8] of 2.98 µM. For the same compound, the TGI [8] was 6.62 µM, the GI50 [9] was 4.28 µM and the TGI [9] was 10.9 µM. For the same compound, the GI50 [10] was 4.38 µM, the TGI [10] was 8.54 µM and the GI50 [11] was 1.23 µM. It also gave a TGI [11] of 4.16 µM, a GI50 [12] of 0.432 µM and a TGI [12] of 0.913 µM. For the same compound, the GI50 [13] was 2.95 µM, the TGI [13] was 7.76 µM and the GI50 [14] was 0.838 µM. It also gave a TGI [14] of 5.49 µM, a GI50 [15] of 2.42 µM and a TGI [15] of 6.69 µM. The GI50 [16] was 1.05 µM, the TGI [16] was 5.92 µM and the GI50 [17] was 0.674 µM. For the same compound, the TGI [17] was 4.28 µM, the GI50 [18] was 2.61 µM and the TGI [18] was 7.06 µM. The GI50 [19] was 2.34 µM, the TGI [19] was 6.08 µM and the GI50 [20] was 1.6 µM. For the same compound, the TGI [20] was 6.95 µM, the GI50 [21] was 0.892 µM and the TGI [21] was 3.9 µM. For the same compound, the GI50 [22] was 2.46 µM, the TGI [22] was 5.72 µM and the GI50 [23] was 0.871 µM. It also gave a TGI [23] of 3.68 µM, a GI50 [24] of 1.11 µM and a TGI [24] of 5.16 µM. For the same compound, the GI50 [25] was 3.58 µM, the TGI [25] was 8.92 µM and the GI50 [26] was 1.35 µM. The TGI [26] was 4.58 µM, the GI50 [27] was 1.03 µM and the TGI [27] was 4.62 µM. The GI50 [28] was 1.04 µM, the TGI [28] was 7.13 µM and the GI50 [29] was 3.67 µM. For the same compound, the TGI [29] was 8.06 µM, the GI50 [30] was 2.32 µM and the TGI [30] was 5.95 µM. For the same compound, the GI50 [31] was 5.47 µM, the TGI [31] was 11 µM and the GI50 [32] was 3.4 µM. The TGI [32] was 7.14 µM, the GI50 [33] was 1.2 µM and the TGI [33] was 5.51 µM. For the same compound, the GI50 [34] was 3.72 µM, the TGI [34] was 12.3 µM and the GI50 [35] was 0.968 µM. The TGI [35] was 4.03 µM, the GI50 [36] was 3.34 µM and the TGI [36] was 9.99 µM. For the same compound, the GI50 [37] was 3.32 µM, the TGI [37] was 17 µM and the GI50 [38] was 4.06 µM. It also gave a TGI [38] of 7.65 µM, a GI50 [39] of 0.935 µM and a TGI [39] of 3.88 µM. The GI50 [40] was 2.36 µM, the TGI [40] was 7.12 µM and the GI50 [41] was 3.09 µM. The TGI [41] was 6.31 µM, the GI50 [42] was 4.99 µM and the TGI [42] was 10.1 µM. For the same compound, the GI50 [43] was 3.71 µM, the TGI [43] was 14.1 µM and the GI50 [44] was 4 µM. For the same compound, the TGI [44] was 8.16 µM, the GI50 [45] was 2.01 µM and the TGI [45] was 5.64 µM. The GI50 [46] was 1.06 µM, the TGI [46] was 3.85 µM and the GI50 [47] was 3.21 µM. The TGI [47] was 7 µM, the GI50 [48] was 0.516 µM and the TGI [48] was 1.16 µM. For the same compound, the GI50 [49] was 5.09 µM, the TGI [49] was 10.6 µM and the GI50 [50] was 3.44 µM. It also gave a TGI [50] of 7.23 µM, a GI50 [51] of 1.26 µM and a TGI [51] of 5.25 µM. It also gave a GI50 [52] of 1.03 µM, a TGI [52] of 4.68 µM and a GI50 [53] of 3.06 µM. For the same compound, the TGI [53] was 7.13 µM, the GI50 [54] was 1.47 µM and the TGI [54] was 5.76 µM. For the same compound, the GI50 [55] was 2.46 µM, the TGI [55] was 7.57 µM and the GI50 [56] was 3.33 µM. It also gave a TGI [56] of 7.17 µM, a GI50 [57] of 3.23 µM and a TGI [57] of 8.56 µM. For the same compound, the GI50 [58] was 3.44 µM and the TGI [58] was 8.44 µM.
